Reference: publication PMC9780888, “4-Isobutylmethcathinone—A Novel Synthetic Cathinone with High In Vitro Cytotoxicity and Strong Receptor Binding Preference of Enantiomers” (Pharmaceuticals, 2022)
Counter-ions that a name gives are not always drawn.

System: L929
Experiment: WST-1 viability assay, L929 cells
Type: cell-based, mouse
Conditions: L929, 72 h incubation, WST-1, four replicates
Protocol: Based on the novelty of the IMBcat compound, we aimed to evaluate its in vitro cytotoxicity in selected model cell lines as well as to determine the toxicity of the IBMcat enantiomers, since both the chemical structure and chirality of compounds could play a role in their bioactivity (Table 2). The cytotoxic profile of the IBMcat was determined by a WST-1 viability assay after 72-h treatment. For this purpose, cell lines derived from distinct tissues, often affected by NPSs, were chosen, i.e., cells of kidney, hepatic, neural, urinary, and intestinal origin as well as keratinocytes and primary fibroblasts (HEK 293T, Hep G2, HMC-3, SH-SY5Y, 5637, CaCo-2, HaCaT, MRC-5, and BJ, respectively). The cytotoxicity of IBMcat and its enantiomers was concentration- and cell-line dependent, the IC50 values, which were in the micromolar range, are given in Table 2. […] This was followed by embryonic kidney cells HEK 293T (immortalized), in which the toxicity ranged between a concentration of 123 and 192 µM.
In this study, the following cell lines were used: HEK 293T, Hep G2, HMC-3, SH-SY5Y, 5637, CaCo-2, HaCaT, MRC-5, BJ, and L929. […] The selected cell lines were chosen so that not only primary noncancerous cells are evaluated but also cells derived from tissues, which are the most often affected by novel synthetic drugs, i.e., kidney, liver, urinary bladder, and nervous tissue. […]
The cytotoxicity of IBMCat was evaluated in vitro by using a WST-1 viability assay (Sigma-Aldrich, Saint Louis, MO, USA) based on the transformation of a tetrazolium salt into colored formazan in metabolically active cells. […] After 72 h of additional incubation of the cells, their viability was determined by WST-1. […] The cells were incubated for 2 h, after which absorbance of the raised formazan was measured spectrophotometrically at 450 nm (reference wavelength of 630 nm) using a UV-Vis spectrometer (Bio-Rad Laboratories, Hercules, CA, USA). […] The half-maximal inhibitory concentrations (IC50) were calculated from the measured dose–response curves by AAT Bioquest.

CNC(C)C(=O)c1ccc(CC(C)C)cc1.Cl (stereo not drawn) [IBMcat, 4-isobutylmethcathinone hydrochloride]
IC50 (Mus musculus): 36 ± 4 µM

CN[C@H](C)C(=O)c1ccc(CC(C)C)cc1 [R-IBMCat]
IC50: 39 ± 2 µM

CN[C@@H](C)C(=O)c1ccc(CC(C)C)cc1 [S-IBMCat, (S)-4-isobutylmethcathinone hydrochloride]
IC50 (Mus musculus): 33 ± 5 µM
